Measured values from patent publication US20190167771A1, “CONTROL ANGIOGENESIS BY REGULATING PHOSPHORYLATION OF SERYL-tRNA SYNTHETASE (SerRS)” (The Scripps Research Institute, priority 2016, published 2019).

Experiments:
ATM/ATR kinases = assay: In vitro phosphorylation of recombinant SerRS by DNA-activated HEK293 nuclear extract (p-SQ immunoblot, 32P-labelling); type: biochemical, human; conditions: recombinant his6-tagged protein, p-SQ antibody and 32P-labelling
Description: FIGS. 1A-G show SerRS is important for hypoxia induced VEGFA expression and is phosphorylated by ATM and ATR kinases under hypoxia at serine 101 and serine 241 residues. In FIG. 1A, HEK293 cells were transfected with shRNAs targeting SerRS (sh-SerRS) or GlyRS (sh-GlyRS), or nonspecific control shRNA (sh-Control). 48 hours post-transfection, cells were cultured under hypoxia or normoxia conditions for 12 hours. Immunoblot of cell lysates with anti-SerRS, anti-GlyRS and anti-β-actin antibodies (left). VEGFA expression levels were measured by qRT-PCR (right) and relative induction of VEGFA transcription under hypoxia were plotted (right, inset) (means±SEM. from four independent experiments; *P<0.01, **P<0.0001). […] The conserved ATM/ATR substrate motif residues are underlined. In FIG. 1C, recombinant his6-tagged human SerRS or GlyRS were incubated with γ-^32P-ATP and HEK293 cell nuclear extracts which are treated with or without double-stranded DNA oligoes mimicking DNA damage stimuli to activate ATM/ATR/DNA-PK kinases. Recombinant proteins were then purified by Ni-NTA beads and subjected to SDS-PAGE and autoradiography. In FIG. 1D, recombinant his6-tagged two human aminoacyl tRNA synthetases (AARS): TyrRS and GlyRS, wild type SerRS, or SerRS mutants with single or double substitutions of serine 101 and serine 241 with alanine (S101A, S241A, and S101A/S241A) were treated as described in FIG. 1C and phosphorylated recombinant proteins were immunoblotted with antibodies as indicated after purification by Ni-NTA beads. In FIG. 1E, HEK293 cells were cultured under hypoxia for 3, 6, and 12 hours. Phosphorylated SerRS was immunoblotted with specific anti-p-SQ antibody after SerRS proteins were immunoprecipitated (IP). Cell lysates were immunoblotted with indicated antibodies for known ATM and ATR substrates (Chk1 and P53). In FIG. 1F, Flag-tagged wild type and mutant SerRS constructs were transfected into HEK293 cells. 24 hours post-transfection, cells were treated with hypoxia stress for 12 hours and ectopically expressed SerRS was then purified by immunoprecipitation (IP) using anti-Flag antibody and immunoblot (IB) with anti-P-SQ antibody and anti-Flag antibody. In FIG. 1G, HEK293 cells were transfected with siRNA against ATM (si-ATM) or ATR (si-ATR) and treated with hypoxia stress for 12 hours. Phosphorylated SerRS were immunoblotted as described in FIG. 1E. […]
For protein purification, human SerRS and its mutant genes were subeloned into pET-20b(+) plasmid (Novagen, Darmstadt, Germany) and overexpressed in E. coli. […] The purities of the recombinant proteins were assessed by Coomassie blue staining following 4-12% Mini Gel (ThermoFisher Scientific) electrophoresis. Protein concentrations were determined using Bradford protein assay (BioRad, Hercules, Calif., USA). […]

SIRT2 = assay: Co-immunoprecipitation of SerRS with SIRT2 in HEK293 cells; type: cell-based, human; conditions: V5-tagged SIRT2 and Flag-tagged SerRS co-transfected
Description: The cytosolic fractions (Cy), nuclear fractions (Nu), and the whole cell lysates (WCL) were examined by immunoblot with antibodies against SerRS, nuclear protein Lamin A/C, and cytosolic protein α-tubulin. In FIG. 8B, HEK293 cells were transfected with Flag-tagged SerRS^WT, SerRS^S101A/S241A, or SerRS^S101D/S241D and subjected to cell fractionation and IB with anti-Flag, anti-Lamin A/C, and anti-α-tubulin antibodies. In FIG. 8C, HEK293 cells were cultured under hypoxia for 6 hours and 12 hours. Cells were then lysed and subjected to IP with anti-SerRS antibody and IB with both anti-SerRS and anti-SIRT2 antibodies. In FIG. 8D, HEK293 cells were co-transfected with V5-tagged SIRT2 and Flag-tagged wild type or mutant SerRS. 24 hours post-transfection, cell lysates were subjected to IP with anti-Flag antibody and IB with anti-V5 antibody.
Cells were resuspended with lysis buffer (20 mM Tris-HCl (pH 7.5), 150 mM NaCl, 1 mM of EDTA, 1 mM EGTA, 1% Triton X-100, 2.5 mM sodium pyrophosphate, 1 mM beta-glycerophosphate, 1 mM Na3VO4, and protease inhibitor cocktail) on ice. Supernatants were incubated with indicated antibodies and protein-G-conjugated agarose beads (ThermoFisher Scientific) for at least 2 h. […]

VEGFA = VEGFA mRNA induction by 12-hour hypoxia in HEK293 cells (qRT-PCR); type: cell-based, human; conditions: hypoxia 12 hours
Description: In FIG. 3B, HEK293 cells were transiently transfected with SerRS^WT or SerRS^S101A/S241A constructs or empty control vector. 24 hours post-transfection, VEGFA mRNA induction by 12-hour-hypoxia treatment was monitored by qRT-PCR (means±SEM from four independent experiments; *P<0.05, **P<0.01, ***P<0.005). In FIG. 3C, HEK293 cells were transiently transfected with indicated constructs. 36 hours post-transfection, VEGFA mRNA induction by 12-hour-hypoxia treatment was monitored by qRT-PCR (means±SEM from four independent experiments; *P<0.0, **P<0.001, ***P<0.0001). The protein levels of SerRS, HIF-1α, and β-actin were examined by western blot (bottom).
Transient transfections were performed using Lipofectamine 2000 (ThermoFisher Scientific).
One gram of the total RNA from each sample was reversely transcribed to cDNA by M-MLV reverse transcriptase (Promega, Madison, Wis., USA). All real-time PCR reactions were performed using the StepOnePlus Real-Time PCR system (ThermoFisher Scientific) with SYBR Select Master Mix ThermoFisher Scientific). […] The PCR reaction program started at 95° C. for 10 min, followed by 45 cycles of 95° C. for 20 seconds and 60° C. for 1 min. Each experiment was carried out in triplicate. The VEGFA gene expression was normalized to that of β-ACTIN. Statistical analyses were performed with the software SigmaPlot (version 10.0). Student's t-test was used to analyze the changes between different groups.

[1] = overexpression of SerRS construct, 24 hours post-transfection

Substance | level of phosphorylation in vitro (ATM/ATR kinases) | interaction with SIRT2 (SIRT2) | VEGFA induction under hypoxia (VEGFA; SerRS construct expressed while HIF is knocked down by shRNA (shHIF)) | VEGFA induction under hypoxia (VEGFA; [1])
SerRS^S101A/S241A: phosphorylation-deficient human SerRS double mutant, serine 101 and 241 to alanine, SEQ ID NO: 4 (mouse version in matrigel assay) | almost had no phosphorylation | as strong as with SerRS^WT | completely inhibited VEGFA induction | significantly suppressed VEGFA induction
SerRS^S101D/S241D: SerRS with double substitutions of S101 and S241 with aspartic acid, mimics the phosphorylated SerRS | – | as strong as with SerRS^WT | – | –
SerRS^WT: wildtype human seryl-tRNA synthetase protein, SEQ ID NO: 1 (mouse wild type used in the 3B11 matrigel assay) | robust phosphorylation | – | – | had no effect
